According to patent US20210052705A1, “METHOD OF DRUG […] FOR PTH, PTHrP AND RELATED PEPTIDES” (Radius Health, Inc., priority 2011, published 2021):
Like-named read-outs stand apart in the source and are kept apart here.

Key:
[1] = design: AUC5-90, Mean: unit not given beside the values; conditions: Sprague-Dawley, rat, in vivo, 13.6 ug
in vivo = conditions: Sprague-Dawley, rat, 13.6 ug
[2] = female, human, in vivo
[3] = male, Sprague Dawley, rat, in vivo
clinical = conditions: female, human, in vivo, LS Mean; for AUC(0-inf): AUC0-inf; for AUC(0-t): AUC0-t

AUC5-90, Mean [1]: 282 | Cmax, Mean [1]: 12.3 ng/mL | Tmax, Mean [1]: 9 min | Concentration in Serum at 5 min, Mean ([1]; 5 min): 11.8 ng/mL | Concentration in Serum at 15 min, Mean ([1]; 0.25 h): 10.5 ng/mL | Concentration in Serum at 30 min, Mean ([1]; 0.5 h): 7.1 ng/mL | AUC (in vivo; AUC5-90, Mean): 3.68 ng·h/mL | Cmax (in vivo; Cmax, Mean): 9.7 ng/mL | level at 5 min (in vivo; Concentration in Serum at 5 min, Mean): 8.8 ng/mL | level at 0.25 h (in vivo; Concentration in Serum at 15 min, Mean): 8.6 ng/mL | level at 0.5 h (in vivo; Concentration in Serum at 30 min, Mean): 6 ng/mL | Tmax (in vivo; Tmax, Mean): 9 min | AUC0-inf, LS Mean ([2]; 150 ug): 0.15742 ng·h/mL | AUC0-t, LS Mean ([2]; 150 ug): 0.14285 ng·h/mL | Cmax, LS Mean ([2]; 150 ug): 0.31197 ng/mL | AUC0-inf, LS Mean ([2]; 200 ug): 0.19016 ng·h/mL | AUC0-t, LS Mean ([2]; 200 ug): 0.16679 ng·h/mL | Cmax, LS Mean ([2]; 200 ug): 0.48945 ng/mL | AUC(0-t) ([3]; 20 ug/kg): 166 ng·min/mL | Cmax ([3]; 20 ug/kg): 7.15 ng/mL | Cmax (20 μg/kg Dose) ([3]; 20 ug/kg): 7.15 ng/mL | T1/2 ([3]; 20 ug/kg): 14 min | Tmax ([3]; 20 ug/kg): 15 min | Concentrations of Peptide in Serum ([3]; 26.2 ug, 5 min): 45.29 ng/mL | Concentrations of Peptide in Serum ([3]; 26.2 ug, 0.25 h): 59.72 ng/mL | Concentrations of Peptide in Serum ([3]; 26.2 ug, 0.5 h): 20.15 ng/mL | Concentrations of Peptide in Serum ([3]; 26.2 ug, 0.75 h): 11.63 ng/mL | T1/2 ([3]; 27 ug): 26 min | Tmax ([3]; 27 ug): 15 min | Concentrations of Peptide in Serum ([3]; 27 ug, 5 min): 21.34 ng/mL | Concentrations of Peptide in Serum ([3]; 27 ug, 0.25 h): 31.08 ng/mL | Concentrations of Peptide in Serum ([3]; 27 ug, 0.5 h): 12.43 ng/mL | Concentrations of Peptide in Serum ([3]; 27 ug, 0.75 h): 6.99 ng/mL | Concentrations of Peptide in Serum ([3]; 32 ug, 5 min): 37.76 ng/mL | Concentrations of Peptide in Serum ([3]; 32 ug, 10 min): 29.94 ng/mL | Concentrations of Peptide in Serum ([3]; 32 ug, 0.25 h): 37.48 ng/mL | Concentrations of Peptide in Serum ([3]; 32 ug, 0.5 h): 15.99 ng/mL | Concentrations of Peptide in Serum ([3]; 32 ug, 0.75 h): 8.39 ng/mL | AUC(0-t) ([3]; 141.9 ug): 5199 ng·min/mL | Cmax ([3]; 141.9 ug): 153.74 ng/mL | Tmax ([3]; 141.9 ug): 15 min | % F ([3]; 386.5 ug): 24% | AUC(0-t) ([3]; 386.5 ug): 6899 ng·min/mL | Cmax ([3]; 386.5 ug): 179.02 ng/mL | T1/2 ([3]; 386.5 ug): 16 min | Tmax ([3]; 386.5 ug): 15 min | AUC(0-inf) (clinical; 100 ug): 0.0885 ng·h/mL | AUC(0-t) (clinical; 100 ug): 0.112 ng·h/mL | Cmax (clinical; 100 ug): 0.366 ng/mL | AUC(0-inf) (clinical; 150 ug): 0.119 ng·h/mL | AUC(0-t) (clinical; 150 ug): 0.107 ng·h/mL | Cmax (clinical; 150 ug): 0.315 ng/mL | AUC(0-inf) (clinical; 200 ug): 0.11 ng·h/mL | AUC(0-t) (clinical; 200 ug): 0.0975 ng·h/mL | Cmax (clinical; 200 ug): 0.337 ng/mL
Compound: CC[C@H](C)[C@H](NC(=O)[C@H](CO)NC(=O)[C@H](CCCCN)NC(=O)CNC(=O)[C@H](CCCCN)NC(=O)[C@H](CC(=O)O)NC(=O)[C@H](Cc1cnc[nH]1)NC(=O)[C@H](CC(C)C)NC(=O)[C@H](CC(C)C)NC(=O)[C@H](CCC(N)=O)NC(=O)[C@H](Cc1cnc[nH]1)NC(=O)[C@H](CCC(=O)O)NC(=O)[C@H](CO)NC(=O)[C@@H](NC(=O)[C@H](C)N)C(C)C)C(=O)N[C@@H](CCC(N)=O)C(=O)N[C@@H](CC(=O)O)C(=O)N[C@@H](CC(C)C)C(=O)N[C@@H](CCCNC(=N)N)C(=O)N[C@@H](CCCNC(=N)N)C(=O)N[C@@H](CCCNC(=N)N)C(=O)N[C@@H](CCC(=O)O)C(=O)N[C@@H](CC(C)C)C(=O)N[C@@H](CC(C)C)C(=O)N[C@@H](CCC(=O)O)C(=O)N[C@@H](CCCCN)C(=O)N[C@@H](CC(C)C)C(=O)N[C@@H](CC(C)C)C(=O)NC(C)(C)C(=O)N[C@@H](CCCCN)C(=O)N[C@@H](CC(C)C)C(=O)N[C@@H](Cc1cnc[nH]1)C(=O)N[C@H](C(=O)N[C@@H](C)C(N)=O)[C@@H](C)O [Peptide]
